# Assay results as given in article PMC10004634 (PLOS ONE, 2023).
# Read-outs that look alike come from different tables or passages of the source.
# Experiments:
# Experiment in all cases: biochemical
# Parameters in all cases: KINOMEscan scanMAX competition binding, DNA-tagged kinases, qPCR read-out, percent control at 300 nM
# [1] = molecular target: T1, ABL1(F317I)-nonphosphorylated (Homo sapiens, UniProt P00519, F317I)
# T1 construct: nonphosphorylated
# CSK = CSK (Homo sapiens, UniProt P41240)
# EPHA4 = EPHA4 (Homo sapiens, UniProt P54764)
# [2] = molecular target: T2, JAK2(JH1domain-catalytic) (Homo sapiens, UniProt O60674)
# T2 construct: JH1domain-catalytic
# ROCK2 = ROCK2 (Homo sapiens, UniProt O75116)
# BRK = molecular target: T3, BRK (Homo sapiens, UniProt Q13882)
# T3 construct: gene PTK6
# MAP4K3 = molecular target: T4, MAP4K3 (Homo sapiens, UniProt Q8IVH8)
# T4 sequence (Q8IVH8 1-894): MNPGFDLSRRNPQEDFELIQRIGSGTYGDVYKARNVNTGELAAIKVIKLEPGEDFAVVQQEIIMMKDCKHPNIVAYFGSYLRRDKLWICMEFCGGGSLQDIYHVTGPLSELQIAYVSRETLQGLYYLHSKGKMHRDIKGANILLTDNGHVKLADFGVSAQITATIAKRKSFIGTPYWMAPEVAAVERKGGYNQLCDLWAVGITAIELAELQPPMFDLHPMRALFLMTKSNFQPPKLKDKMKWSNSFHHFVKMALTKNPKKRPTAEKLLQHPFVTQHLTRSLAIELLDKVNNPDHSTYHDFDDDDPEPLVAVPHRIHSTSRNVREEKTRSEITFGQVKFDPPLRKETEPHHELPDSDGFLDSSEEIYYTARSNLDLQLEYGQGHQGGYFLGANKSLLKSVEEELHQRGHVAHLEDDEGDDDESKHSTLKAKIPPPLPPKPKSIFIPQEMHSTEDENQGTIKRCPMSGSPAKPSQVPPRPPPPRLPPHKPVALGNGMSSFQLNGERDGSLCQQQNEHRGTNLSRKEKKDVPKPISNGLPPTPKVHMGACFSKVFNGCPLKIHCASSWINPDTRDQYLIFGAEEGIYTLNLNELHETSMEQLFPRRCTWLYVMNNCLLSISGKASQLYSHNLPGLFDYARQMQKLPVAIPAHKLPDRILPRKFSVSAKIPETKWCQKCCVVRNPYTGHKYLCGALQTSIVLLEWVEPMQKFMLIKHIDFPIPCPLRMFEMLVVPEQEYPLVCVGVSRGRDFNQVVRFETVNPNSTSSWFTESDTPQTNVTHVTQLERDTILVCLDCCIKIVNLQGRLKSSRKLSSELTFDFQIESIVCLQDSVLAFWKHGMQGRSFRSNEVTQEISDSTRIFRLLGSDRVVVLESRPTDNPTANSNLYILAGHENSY
# MLCK = molecular target: T5, MLCK (Homo sapiens, UniProt Q32MK0)
# T5 construct: gene MYLK3
# T5 sequence (Q32MK0 1-819): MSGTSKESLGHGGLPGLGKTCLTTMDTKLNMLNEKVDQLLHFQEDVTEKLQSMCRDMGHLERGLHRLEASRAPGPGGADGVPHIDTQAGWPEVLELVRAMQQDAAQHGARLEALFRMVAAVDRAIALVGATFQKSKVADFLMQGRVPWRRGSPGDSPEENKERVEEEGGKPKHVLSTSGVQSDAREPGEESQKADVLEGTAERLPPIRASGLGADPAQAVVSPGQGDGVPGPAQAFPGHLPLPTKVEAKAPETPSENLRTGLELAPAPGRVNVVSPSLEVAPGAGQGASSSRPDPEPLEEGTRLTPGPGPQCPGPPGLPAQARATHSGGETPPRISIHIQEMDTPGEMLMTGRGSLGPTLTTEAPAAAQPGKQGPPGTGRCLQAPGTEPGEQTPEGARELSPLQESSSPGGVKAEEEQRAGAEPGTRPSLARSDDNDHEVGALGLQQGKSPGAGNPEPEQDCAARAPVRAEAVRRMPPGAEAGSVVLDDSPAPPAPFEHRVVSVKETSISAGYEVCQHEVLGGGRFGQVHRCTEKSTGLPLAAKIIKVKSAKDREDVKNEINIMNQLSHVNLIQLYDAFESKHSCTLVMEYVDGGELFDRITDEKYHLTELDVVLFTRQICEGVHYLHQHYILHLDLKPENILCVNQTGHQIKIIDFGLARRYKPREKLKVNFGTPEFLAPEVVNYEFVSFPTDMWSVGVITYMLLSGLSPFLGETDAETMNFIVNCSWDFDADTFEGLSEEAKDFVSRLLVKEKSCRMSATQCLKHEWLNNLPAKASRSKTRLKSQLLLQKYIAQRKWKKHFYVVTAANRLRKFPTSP
# [3] = read-out: Percent control / Tirabrutinib
# [4] = read-out: Percent control / Zanubrutinib
# [5] = read-out: Percent control / Acalabrutinib
# [6] = read-out: Percent control / Ibrutinib
# ROCK2, sequence (O75116 whole entry): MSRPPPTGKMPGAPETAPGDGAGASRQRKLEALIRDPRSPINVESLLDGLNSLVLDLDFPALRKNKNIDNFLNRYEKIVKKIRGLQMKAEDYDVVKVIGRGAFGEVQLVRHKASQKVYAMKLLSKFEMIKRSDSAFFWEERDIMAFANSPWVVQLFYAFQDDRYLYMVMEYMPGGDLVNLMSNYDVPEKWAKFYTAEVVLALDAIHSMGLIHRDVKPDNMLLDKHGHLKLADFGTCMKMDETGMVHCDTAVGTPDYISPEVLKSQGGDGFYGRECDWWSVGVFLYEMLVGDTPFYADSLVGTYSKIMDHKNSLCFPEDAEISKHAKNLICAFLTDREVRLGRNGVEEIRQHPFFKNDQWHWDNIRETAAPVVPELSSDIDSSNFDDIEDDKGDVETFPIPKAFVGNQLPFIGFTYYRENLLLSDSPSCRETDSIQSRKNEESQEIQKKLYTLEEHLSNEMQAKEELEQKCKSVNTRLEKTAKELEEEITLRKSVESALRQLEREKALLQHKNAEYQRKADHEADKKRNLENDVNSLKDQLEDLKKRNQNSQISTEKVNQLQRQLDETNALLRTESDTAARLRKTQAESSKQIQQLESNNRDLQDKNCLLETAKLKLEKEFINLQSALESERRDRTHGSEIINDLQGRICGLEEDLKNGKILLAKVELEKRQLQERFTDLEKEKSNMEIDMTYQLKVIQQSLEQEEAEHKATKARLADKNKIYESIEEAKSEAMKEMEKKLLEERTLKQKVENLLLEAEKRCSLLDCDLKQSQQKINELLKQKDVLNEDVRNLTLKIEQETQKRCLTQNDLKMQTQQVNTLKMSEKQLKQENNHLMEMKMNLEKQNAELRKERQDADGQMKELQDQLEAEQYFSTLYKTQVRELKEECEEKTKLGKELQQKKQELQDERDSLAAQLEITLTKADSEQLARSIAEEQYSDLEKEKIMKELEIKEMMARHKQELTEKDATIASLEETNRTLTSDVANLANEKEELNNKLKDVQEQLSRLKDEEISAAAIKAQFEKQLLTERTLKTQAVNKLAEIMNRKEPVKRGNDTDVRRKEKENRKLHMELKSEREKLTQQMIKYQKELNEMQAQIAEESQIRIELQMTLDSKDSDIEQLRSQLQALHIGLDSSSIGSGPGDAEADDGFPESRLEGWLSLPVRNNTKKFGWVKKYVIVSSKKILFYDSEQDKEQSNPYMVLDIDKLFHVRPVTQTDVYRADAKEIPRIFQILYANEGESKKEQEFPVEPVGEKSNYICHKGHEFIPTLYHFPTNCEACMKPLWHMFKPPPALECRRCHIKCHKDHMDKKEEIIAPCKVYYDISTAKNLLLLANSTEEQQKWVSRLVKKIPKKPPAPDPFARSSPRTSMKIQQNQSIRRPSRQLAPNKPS
# T2 sequence (O60674 whole entry): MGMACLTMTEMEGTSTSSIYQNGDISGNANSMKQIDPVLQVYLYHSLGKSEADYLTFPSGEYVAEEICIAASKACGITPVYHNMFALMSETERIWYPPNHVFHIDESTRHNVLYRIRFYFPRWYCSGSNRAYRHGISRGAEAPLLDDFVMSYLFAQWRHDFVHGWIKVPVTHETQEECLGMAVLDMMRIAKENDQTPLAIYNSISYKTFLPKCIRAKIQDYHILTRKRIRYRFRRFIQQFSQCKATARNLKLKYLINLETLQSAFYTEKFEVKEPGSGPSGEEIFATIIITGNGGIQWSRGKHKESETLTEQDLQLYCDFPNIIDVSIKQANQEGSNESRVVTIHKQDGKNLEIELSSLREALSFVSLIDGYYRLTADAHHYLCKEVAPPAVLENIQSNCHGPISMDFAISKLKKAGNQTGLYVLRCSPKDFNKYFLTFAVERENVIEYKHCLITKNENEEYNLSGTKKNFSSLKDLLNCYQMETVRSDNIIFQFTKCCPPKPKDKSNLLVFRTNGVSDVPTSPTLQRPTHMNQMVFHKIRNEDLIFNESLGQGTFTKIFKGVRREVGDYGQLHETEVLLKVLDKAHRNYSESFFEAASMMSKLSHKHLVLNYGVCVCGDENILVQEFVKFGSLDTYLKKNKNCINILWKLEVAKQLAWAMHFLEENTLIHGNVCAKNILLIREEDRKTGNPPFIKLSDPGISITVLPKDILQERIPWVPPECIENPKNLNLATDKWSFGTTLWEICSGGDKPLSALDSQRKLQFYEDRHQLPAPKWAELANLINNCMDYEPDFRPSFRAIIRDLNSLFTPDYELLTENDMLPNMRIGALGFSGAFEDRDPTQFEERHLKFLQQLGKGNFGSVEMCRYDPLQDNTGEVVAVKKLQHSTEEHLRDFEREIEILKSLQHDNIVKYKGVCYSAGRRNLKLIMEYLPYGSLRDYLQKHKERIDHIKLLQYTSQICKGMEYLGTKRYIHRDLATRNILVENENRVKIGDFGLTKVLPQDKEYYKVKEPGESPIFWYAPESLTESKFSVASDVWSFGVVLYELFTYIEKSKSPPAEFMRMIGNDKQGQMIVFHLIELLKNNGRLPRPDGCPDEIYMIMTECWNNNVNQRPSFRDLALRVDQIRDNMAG
# EPHA4, sequence (P54764 whole entry): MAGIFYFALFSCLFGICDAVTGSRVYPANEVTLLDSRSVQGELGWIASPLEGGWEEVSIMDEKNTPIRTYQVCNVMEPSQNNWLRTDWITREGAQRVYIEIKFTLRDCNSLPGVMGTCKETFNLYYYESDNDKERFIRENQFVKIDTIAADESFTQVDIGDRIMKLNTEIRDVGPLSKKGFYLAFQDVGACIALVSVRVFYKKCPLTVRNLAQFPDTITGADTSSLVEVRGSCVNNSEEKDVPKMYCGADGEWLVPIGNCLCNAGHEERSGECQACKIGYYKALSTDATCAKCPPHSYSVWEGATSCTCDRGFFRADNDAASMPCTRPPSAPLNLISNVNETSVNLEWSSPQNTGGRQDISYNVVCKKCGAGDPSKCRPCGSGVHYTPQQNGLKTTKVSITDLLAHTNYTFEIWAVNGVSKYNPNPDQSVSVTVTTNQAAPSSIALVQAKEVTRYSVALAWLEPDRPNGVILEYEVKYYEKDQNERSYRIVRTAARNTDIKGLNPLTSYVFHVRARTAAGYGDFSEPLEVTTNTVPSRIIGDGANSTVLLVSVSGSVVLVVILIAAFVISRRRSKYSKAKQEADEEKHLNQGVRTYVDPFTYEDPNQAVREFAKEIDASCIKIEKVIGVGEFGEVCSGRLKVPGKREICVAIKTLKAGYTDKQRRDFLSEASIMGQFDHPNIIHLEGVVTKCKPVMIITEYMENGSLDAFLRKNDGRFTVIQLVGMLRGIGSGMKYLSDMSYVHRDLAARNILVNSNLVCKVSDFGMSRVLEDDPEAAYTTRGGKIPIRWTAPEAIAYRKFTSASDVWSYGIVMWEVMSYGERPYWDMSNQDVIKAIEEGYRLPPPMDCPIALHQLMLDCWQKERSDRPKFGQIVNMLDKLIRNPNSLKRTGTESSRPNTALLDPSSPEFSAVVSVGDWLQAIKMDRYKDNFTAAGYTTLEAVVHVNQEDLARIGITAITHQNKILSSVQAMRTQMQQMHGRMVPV
# T3 sequence (Q13882 whole entry): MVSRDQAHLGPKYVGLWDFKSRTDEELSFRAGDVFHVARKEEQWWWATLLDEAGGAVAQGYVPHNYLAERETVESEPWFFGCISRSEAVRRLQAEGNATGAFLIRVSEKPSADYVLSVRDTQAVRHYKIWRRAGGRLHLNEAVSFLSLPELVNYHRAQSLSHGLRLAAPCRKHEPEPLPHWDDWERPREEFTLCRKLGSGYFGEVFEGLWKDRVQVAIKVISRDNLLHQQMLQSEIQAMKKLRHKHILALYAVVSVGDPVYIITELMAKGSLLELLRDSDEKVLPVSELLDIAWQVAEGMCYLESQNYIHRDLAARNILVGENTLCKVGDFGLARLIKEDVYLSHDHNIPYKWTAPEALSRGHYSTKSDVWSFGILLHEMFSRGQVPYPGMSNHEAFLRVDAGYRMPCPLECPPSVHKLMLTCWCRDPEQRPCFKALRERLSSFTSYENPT
# T1 sequence (P00519 whole entry F317I): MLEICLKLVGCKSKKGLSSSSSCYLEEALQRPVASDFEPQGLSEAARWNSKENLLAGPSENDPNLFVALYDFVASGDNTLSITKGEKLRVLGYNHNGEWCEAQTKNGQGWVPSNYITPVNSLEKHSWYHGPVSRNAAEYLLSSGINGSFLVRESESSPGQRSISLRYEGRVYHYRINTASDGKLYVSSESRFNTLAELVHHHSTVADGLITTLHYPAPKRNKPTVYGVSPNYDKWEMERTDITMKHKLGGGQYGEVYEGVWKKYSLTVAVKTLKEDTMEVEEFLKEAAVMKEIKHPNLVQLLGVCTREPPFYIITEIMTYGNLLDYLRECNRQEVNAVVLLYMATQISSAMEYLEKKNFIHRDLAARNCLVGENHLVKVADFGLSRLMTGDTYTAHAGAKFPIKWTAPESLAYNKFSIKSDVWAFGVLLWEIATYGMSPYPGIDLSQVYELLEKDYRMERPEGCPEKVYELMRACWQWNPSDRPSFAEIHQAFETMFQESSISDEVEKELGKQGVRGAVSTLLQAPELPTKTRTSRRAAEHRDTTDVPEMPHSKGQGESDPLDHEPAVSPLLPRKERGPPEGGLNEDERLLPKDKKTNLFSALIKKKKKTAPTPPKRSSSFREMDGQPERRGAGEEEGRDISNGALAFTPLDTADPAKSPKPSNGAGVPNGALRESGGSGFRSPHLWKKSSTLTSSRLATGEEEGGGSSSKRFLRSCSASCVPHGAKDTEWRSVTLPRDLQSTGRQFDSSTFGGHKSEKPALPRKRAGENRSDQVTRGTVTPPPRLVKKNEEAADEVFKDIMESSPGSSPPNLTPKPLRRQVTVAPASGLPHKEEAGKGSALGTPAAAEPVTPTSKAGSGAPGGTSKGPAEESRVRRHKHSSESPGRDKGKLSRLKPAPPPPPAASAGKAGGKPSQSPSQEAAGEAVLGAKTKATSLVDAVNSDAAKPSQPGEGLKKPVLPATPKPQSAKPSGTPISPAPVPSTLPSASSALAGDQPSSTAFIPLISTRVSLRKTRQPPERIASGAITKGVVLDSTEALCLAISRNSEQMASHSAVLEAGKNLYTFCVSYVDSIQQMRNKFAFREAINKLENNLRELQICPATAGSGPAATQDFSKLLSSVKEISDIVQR
smiles,measurement,setting,value
CC#CC(=O)N1CC[C@@H](n2c(=O)n(-c3ccc(Oc4ccccc4)cc3)c3c(N)ncnc32)C1 [Tirabrutinib],remaining binding at 0.3 µM,[1]; [3],77%
same,remaining binding at 0.3 µM,CSK; [3],47%
same,remaining binding at 0.3 µM,EPHA4; [3],94%
same,remaining binding at 0.3 µM,[2]; [3],77%
same,remaining binding at 0.3 µM,ROCK2; [3],90%
C=CC(=O)N1CCC([C@@H]2CCNc3c(C(N)=O)c(-c4ccc(Oc5ccccc5)cc4)nn32)CC1 [Zanubrutinib],remaining binding at 0.3 µM,BRK; [4],35%
same,remaining binding at 0.3 µM,[2]; [4],96%
same,remaining binding at 0.3 µM,MAP4K3; [4],91%
same,remaining binding at 0.3 µM,MLCK; [4],84%
same,remaining binding at 0.3 µM,ROCK2; [4],85%
CC#CC(=O)N1CCC[C@H]1c1nc(-c2ccc(C(=O)Nc3ccccn3)cc2)c2c(N)nccn12 [Acalabrutinib],remaining binding at 0.3 µM,[1]; [5],81%
same,remaining binding at 0.3 µM,BRK; [5],87%
same,remaining binding at 0.3 µM,CSK; [5],85%
same,remaining binding at 0.3 µM,EPHA4; [5],96%
same,remaining binding at 0.3 µM,[2]; [5],85%
same,remaining binding at 0.3 µM,MAP4K3; [5],94%
same,remaining binding at 0.3 µM,MLCK; [5],94%
same,remaining binding at 0.3 µM,ROCK2; [5],94%
C=CC(=O)N1CCC[C@@H](n2nc(-c3ccc(Oc4ccccc4)cc3)c3c(N)ncnc32)C1 [Ibrutinib],remaining binding at 0.3 µM,[1]; [6],42%
same,remaining binding at 0.3 µM,BRK; [6],3.4%
same,remaining binding at 0.3 µM,CSK; [6],1.4%
same,remaining binding at 0.3 µM,EPHA4; [6],82%
same,remaining binding at 0.3 µM,MAP4K3; [6],89%
same,remaining binding at 0.3 µM,MLCK; [6],79%
same,remaining binding at 0.3 µM,ROCK2; [6],84%
